In patent US20080167332A1, “Novel Compounds 243” (priority 2006, published 2008):
Structures can show the parent of a compound that is named as a salt.

The compounds below were run against T1, recombinant human CCR1 (Homo sapiens, UniProt P32246) (assay: Human CCR1 binding assay ([125I] MIP-1α displacement)). Settings: displacement of 33 pM [125I] MIP-1α, HEK-CCR1 membranes; read-out: Result from assay: IC50.
T1 construct: expressed in transfected cells; membranes
T1 sequence (P32246 1-355): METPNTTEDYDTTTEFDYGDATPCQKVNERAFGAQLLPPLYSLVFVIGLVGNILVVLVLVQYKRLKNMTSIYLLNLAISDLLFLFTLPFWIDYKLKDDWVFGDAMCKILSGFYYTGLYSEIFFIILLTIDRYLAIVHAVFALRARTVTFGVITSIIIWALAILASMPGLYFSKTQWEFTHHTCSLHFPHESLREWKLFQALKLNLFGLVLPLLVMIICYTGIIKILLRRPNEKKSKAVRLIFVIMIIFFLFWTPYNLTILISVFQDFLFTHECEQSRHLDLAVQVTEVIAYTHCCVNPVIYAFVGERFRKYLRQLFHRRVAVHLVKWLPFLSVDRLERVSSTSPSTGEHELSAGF
Protocol: HEK293 cells, from ECACC, stably expressing recombinant human CCR1 (HEK-CCR1) were used to prepare cell membranes containing CCR1. The membranes were stored at −70° C. The concentration of membranes of each batch was adjusted to 10% specific binding of 33 pM [^125I] MIP-1α.
100 μL of HEK-CCR1 membranes diluted in assay buffer pH 7.4 ((137 mM NaCl (Merck, Cat No 1.06404), 5.7 mM Glucose (Sigma, Cat No G5400), 2.7 mM KCl (Sigma, Cat No P-9333), 0.36 mM NaH2PO4×H2O (Merck, Cat No 1.06346), 10 mM HEPES (Sigma, Cat No H3375), 0.1% (w/v) Gelatine (Sigma, Cat No G2625)) with the addition of 17500 units/L Bacitracin (Sigma, Cat No B1025) were added to each well of the 96 well filter plate (0.45 μm opaque Millipore cat no MHVB N4550). 12 μL of compound in assay buffer, containing 10% DMSO, was added to give final compound concentrations of 1×10^−5.5−I×10^−9.5 M. 12 μL cold human recombinant MIP-1α (270-LD-050, R&D Systems, Oxford, UK), 10 nM final concentration in assay buffer supplemented with 10% DMSO, was included in certain wells (without compound) as non-specific binding control (NSB). 12 μL assay buffer with 10% DMSO was added to certain wells (without compound) to detect maximal binding (B0).
12 μL [^125I] MIP-1α, diluted in assay buffer to a final concentration in the wells of 33 pM, was added to all wells. The plates with lid were then incubated for 1.5 h at room temperature. After incubation the wells were emptied by vacuum filtration (MultiScreen Resist Vacuum Manifold system, Millipore) and washed once with 200 μL assay buffer. After the wash, all wells received an addition of […] of scintillation fluid (OptiPhase “Supermix”, Wallac Oy, Turko, Finland). Bound [^125I] MIP-1α was measured using a Wallac Trilux 1450 MicroBeta counter. Window settings: Low 5-High 1020, 1-minute counting/well.
The following equation was used to calculate percent displacement.
Percent displacement=1−((cpm test−cpm NSB)/(cpm B0−cpm NSB)) where:
cpm test=average cpm in wells with membranes and compound and [^125I] MIP-1α; NSB=average cpm in the wells with membranes and MIP-1α and [^125I] MIP-1α (non-specific binding); B0=average cpm in wells with membranes and assay buffer and [^125I] MIP-1α (maximum binding).
The molar concentration of compound producing 50% displacement (IC50) was derived using the Excel-based program XLfit (version 2.0.9) to fit data to a 4-parameter logistics function.

Row | IC50 | Structure (SMILES)
1 | 2.42 nM | CNC(=O)c1cc(Cl)c(OC(C)(C)C(=O)O)cc1OCC(O)CN1CCC2(CC1)Cc1cc(Cl)ccc1O2 (racemic) [Example 21, 2-{2-Chloro-5-{3-(5-chloro-1′H 3H-spiro[1-benzofuran-2,4′-piperidin]-1′-yl)-2-hydroxypropyl]oxy}-4-dimethylamino)carbonyl]-phenoxy}-2-methyl-propanoic acid trifluoracetate]
2 | 10 nM | CC(=O)Nc1ccc(OCC(=O)O)cc1OC[C@@H](O)CN1CCC2(CC1)Cc1cc(Cl)ccc1O2 [Example 2, (4-(acetylamino)-3-{[(2S)-3-(5-chloro-1′H,3H-spiro[1-benzofuran-2,4′-piperidin]-1′-yl)-2-hydroxypropyl]oxy}phenoxy)acetic acid]
3 | 20.2 nM | CNC(=O)c1cc(Cl)c(OCC(=O)O)cc1OC[C@@H](O)CN1CCC2(CC1)Cc1cc(Cl)ccc1O2 [Example 4]
4 | 1.06 nM | CNC(=O)c1cc(Cl)c(OC(C)(C)C(=O)O)cc1OC[C@@H](O)CN1CCC2(CC1)Cc1cc(Cl)ccc1O2 [Example 5, 2-[2-Chloro-5-{[(2S)-3-(5-chloro-1′H,3H-spiro[l-benzofuran-2,4′-piperidin]-1′-yl)-2-hydroxypropyl]oxy}-4-[(methylamino)carbonyl]-phenoxy}-2-methylpropanoic acid TFA]
5 | 11.4 nM | CN(C)C(=O)c1cc(Cl)c(OCC(=O)O)cc1OC[C@@H](O)CN1CCC2(CC1)Cc1cc(Cl)ccc1O2 [Example 18, {2-Chloro-5-{[(2S)-3-(5-chloro-1′H,3H-spirol[1-benzofuran-2,4′-piperidin]-1′-yl)-2-hydroxypropyl]oxy}-4-[(dimethylamino)carbonyl]phenoxy}acetic acid]
6 | 1.6 nM | CN(C)C(=O)c1cc(Cl)c(OC(C)(C)C(=O)O)cc1OC[C@@H](O)CN1CCC2(CC1)Cc1cc(Cl)ccc1O2 [Example 19, 2-{2-Chloro-5-{[(2S)-3-(5-chloro-1′H, 3H-spiro[l-benzofuran-2,4′-piperidin]-1′-yl)-2-hydroxypropyl]oxy}-4-[(dimethylamino)carbonyl]-phenoxy}-2-methylpropanoic acid]
7 | 2.02 nM | O=C(O)COc1cc(OC[C@@H](O)CN2CCC3(CC2)Cc2cc(Cl)ccc2O3)c(C(=O)N2CC[C@H](O)C2)cc1Cl [Example 20, (2-Chloro-5-{[(2S)-3-(5-chloro-1′H,3H-spiro[1-benzofuran-2,4′-piperidin]-1′-yl)-2-hydroxypropyl]oxy}-4-{[(3S)-3-hydroxypyrrolidin-1-yl]carbonyl}phenoxy)acetic acid]
8 | 71.7 nM | CNC(=O)c1cc(Cl)c(OC(C)(C)C(=O)O)cc1OC[C@@H](O)CN1CCC2(CC1)Cc1cc(Cl)cc(C(C)(C)C)c1O2 [Example 22, 2-[5-{[(2S)-3-(7-tert-Butyl-5-chloro-1′H, 3H-spiro[1-benzofuran-2,4′-piperidin]-1′-yl)-2-hydroxypropyl]oxy}-2-chloro-4-(methylcarbamoyl)phenoxy]-2-methylpropanoic acid]

Row | Structure (SMILES) | IC50
9 | CNC(=O)c1cc(Cl)c(OC(C)(C)C(=O)O)cc1OC[C@H](O)CN1CCC2(CC1)Cc1cc(Cl)ccc1O2 [Example 6, 2-{2-Chloro-5-{[(2R)-3-(5-chloro-1′H,3H-spiro[1-benzofuran-2,4′-piperidin]-1′-yl)-2-hydroxypropyl]oxy}-4-[(methylamino)carbonyl]phenoxy}-2-methylpropanoic acid] | 11 nM

Same assay, conditions: displacement of 33 pM [125I] MIP-1α, HEK-CCR1 membranes; read-out: Result from assay: pIC50 (converted)

Row | IC50 | Structure (SMILES)
10 | 0.562 nM | CC(=O)Nc1cc(Cl)c(OCC(=O)O)cc1OC[C@@H](O)CN1CCC2(CC1)Cc1cc(Cl)ccc1O2 [Example 1, (4-(acetylamino)-2-chloro-5-{[(2S)-3-(5-chloro-1′H,3H-spiro[1-benzofuran-2,4′-piperidin]-1′-yl)-2-hydroxypropyl]oxy}phenoxy)acetic acid]
11 | 2.24 nM | CC(=O)Nc1cc(Cl)c(OCC(=O)O)cc1OC[C@@H](O)CN1CCC2(CC1)Cc1cc(F)ccc1O2 [Example 3, (4-(acetylamino)-2-chloro-5-{[(2S)-3-(5-fluoro-1′H,3H-spiro[1-benzofuran-2,4′-piperidin]-1′-yl)-2-hydroxypropyl]oxy}phenoxy)acetic acid, hydrochloride]

What follows are compounds tested against T2, human ether-a-go-go-related-gene (hERG)-encoded potassium channel (Homo sapiens, UniProt Q12809) (assay: hERG-encoded potassium channel binding assay). Settings: HEK 293 cell membranes expressing the IKR channel, radioligand binding; read-out: hERG binding concentration.
T2 construct: expressed in transfected cells; host or cells: HEK 293 cell membranes
Protocol: This assay, which is described in full detail in example 2, WO2005037052, determines the ability of a test compound to bind to the human ether-a-go-go-related-gene (hERG)-encoded potassium channel. The assay comprises the following steps: a) incubation of HEK 293 cell membranes expressing the IKR channel in the presence of radioligand 3,7-bis[2-(4-nitro[3,5-^3H]phenyl)ethyl]-3,7-diazabicyclo[3.3.1]nonane, in the presence or absence of a test compound; b) quantitation of specifically bound labelled compound in the presence or absence of a test compound; c) calculation of the inhibition of labelled compound binding by the test compound. Similar protocols to determine affinity for the human ether-a-go-go-related-gene (hERG)-encoded potassium channel have been described by Finlayson, K. et al. [Eur. J. Pharmacol. 2001, 412, 203 and Eur. J. Pharmacol. 2001, 430, 147].

T2 sequence (Q12809 whole entry): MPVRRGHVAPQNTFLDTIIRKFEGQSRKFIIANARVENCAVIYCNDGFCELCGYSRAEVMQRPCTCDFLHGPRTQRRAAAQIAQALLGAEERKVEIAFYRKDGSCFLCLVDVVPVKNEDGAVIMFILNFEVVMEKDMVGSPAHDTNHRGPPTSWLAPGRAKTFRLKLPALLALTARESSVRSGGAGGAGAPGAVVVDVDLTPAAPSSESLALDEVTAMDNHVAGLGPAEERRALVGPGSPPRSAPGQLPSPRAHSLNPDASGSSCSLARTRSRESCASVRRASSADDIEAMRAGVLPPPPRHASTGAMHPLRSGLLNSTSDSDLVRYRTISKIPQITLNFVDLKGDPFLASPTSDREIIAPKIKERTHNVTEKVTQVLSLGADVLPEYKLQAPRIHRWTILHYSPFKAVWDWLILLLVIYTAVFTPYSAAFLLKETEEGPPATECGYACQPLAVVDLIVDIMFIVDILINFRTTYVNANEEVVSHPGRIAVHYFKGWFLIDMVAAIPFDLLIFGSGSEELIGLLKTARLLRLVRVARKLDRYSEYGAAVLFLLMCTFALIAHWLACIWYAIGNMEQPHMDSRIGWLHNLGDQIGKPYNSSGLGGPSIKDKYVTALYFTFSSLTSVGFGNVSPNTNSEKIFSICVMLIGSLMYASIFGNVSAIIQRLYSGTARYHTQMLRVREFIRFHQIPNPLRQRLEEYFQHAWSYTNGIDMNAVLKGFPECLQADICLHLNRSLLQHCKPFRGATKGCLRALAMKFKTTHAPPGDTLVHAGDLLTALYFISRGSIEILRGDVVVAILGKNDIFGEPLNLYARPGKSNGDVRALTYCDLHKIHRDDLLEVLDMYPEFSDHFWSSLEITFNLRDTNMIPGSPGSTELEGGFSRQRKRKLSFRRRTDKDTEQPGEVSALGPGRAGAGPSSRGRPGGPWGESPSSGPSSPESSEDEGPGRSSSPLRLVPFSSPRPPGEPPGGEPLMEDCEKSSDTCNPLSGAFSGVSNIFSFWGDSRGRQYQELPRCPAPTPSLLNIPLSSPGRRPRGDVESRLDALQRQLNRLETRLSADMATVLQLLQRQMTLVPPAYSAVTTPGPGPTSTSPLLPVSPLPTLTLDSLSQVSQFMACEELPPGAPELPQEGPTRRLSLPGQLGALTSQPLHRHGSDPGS

Row | Structure (SMILES) | IC50
12 | CC(=O)Nc1cc(Cl)c(OCC(=O)O)cc1OC[C@@H](O)CN1CCC2(CC1)Cc1cc(Cl)ccc1O2 [Example 1, (4-(acetylamino)-2-chloro-5-{[(2S)-3-(5-chloro-1′H,3H-spiro[1-benzofuran-2,4′-piperidin]-1′-yl)-2-hydroxypropyl]oxy}phenoxy)acetic acid] | > 30000 nM
